According to patent US6770644B1, “Hydroxamic acid derivatives, process for the production thereof and drug containing the same as the active ingredient” (Ono Pharmaceuticals Co., Ltd., priority 1999, dated 2004):

Experiments:
[1] = system: IL-6 production from A549 cells; experiment: Inhibitory activity on IL-6 production from A549 cells (TNF-α stimulated, ELISA); type: cell-based; conditions: A549 cells (human lung epithelial cell line), TNF-α stimulation, 24 hours, read-out: 50% inhibitory concentration (IC50) on IL-6 production
Protocol: (1) The Measurement of an Inhibitory Activity on IL-6 Production from A549 Cells
1.5×10^4 of A549 cells (human lung epithelial cell line) were suspended in 100 μL of Dulbecco's Modified Eagle Medium (DMEM) containing 0.5% fetal bovine serum (abbreviated as FBS) and incubated for a day and night in 96 well-microplate. 20 μL of the test compound dissolved in dimethylsulfoxide (DMSO) at various concentrations and 80 μL of tumor necrosis factor-α (TNF-α (Genzyme Co., cat. No. TNF-H)) dissolved in serum-free DMEM at the concentration of 12.5 ng/mL were added thereto. After the incubation for 24 hours, the supernatant (100 μL) was collected to measure the amount of IL-6 being produced using enzyme linked immuno […] assay (ELISA) (R&D Systems Co., cat. No. D6050). Then the inhibitory activity of the test compound was calculated and the 50% inhibitory concentration (IC50) was determined.

[2] = system: IL-6 production from human synovial cells; experiment: Inhibitory activity on IL-6 production from human synovial cells (IL-1β stimulated, ELISA); type: cell-based; conditions: Synovial cell, synovial cells from rheumatoid arthritis patients, IL-1β stimulation, 24 hours, read-out: 50% inhibitory concentration (IC50) on IL-6 production
Protocol: (2) The Measurement of an Inhibitory Activity on IL-6 Production from Human Synovial Cells
3.0×10^3 of synovial cells from rheumatoid arthritis patients were suspended in 200 μL of DMEM containing 10% FBS and incubated for a day and night in 96 well-microplate, followed by the incubation for 5 hours in serum-free DMEM. 20 μL of the test compound dissolved in DMSO at various concentrations and 80 μL of interleukin-1β (IL-1β (Genzyme Co., cat. No. 80-3688-01)) dissolved in DMEM containing 2.5% fetal bovine serum at the concentration of 5 ng/mL were added thereto. After the incubation for 24 hours, the supernatant (100 μL) was collected to measure the amount of IL-6 being produced using ELISA (R&D Systems Co., cat. No. D6050). Then the inhibitory activity of the test compound was calculated and the 50% inhibitory concentration (IC50) was determined.

With `O=C(CCCC[C@@H](O)c1ccc(-c2ccc(Cl)cc2)cc1)NO` [example 3] as the compound, how does the IC50 [1] read?
The IC50 was 52 nM.

What about the IC50 [2] of the same compound?
Its IC50 is 41 nM.
